We go through one compound from PubChem BioAssay AID488840 (Broad Institute, 2010).

The structures appear in SMILES notation. Active and inactive are the calls of the source.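 How the source made its calls: active means half-maximal dose of signal decrease from fit no higher than ten times the top valid tested dose; inconclusive means fit invalid, or curve flat with 30 to 70% inhibition; inactive means the rest.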

This experiment addresses Lysine-specific demethylase 4A (Homo sapiens) (UniProt O75164). The experiment can be described thus: JMJD2A histone demethylase inhibitors, dose response, selectivity assay for GASC-1 inhibitor project, biochemical, DELFIA europium, cherry-picked samples (AID 488840).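 Further: europium signal reports the dimethyl H3K9 product detected by antibody so inhibitors lower it.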 The conditions noted are these: GST-JMJD2A(1-420) H3K9me3 demethylation.

Chain of Lysine-specific demethylase 4A (Homo sapiens) (O75164 whole entry, looked up): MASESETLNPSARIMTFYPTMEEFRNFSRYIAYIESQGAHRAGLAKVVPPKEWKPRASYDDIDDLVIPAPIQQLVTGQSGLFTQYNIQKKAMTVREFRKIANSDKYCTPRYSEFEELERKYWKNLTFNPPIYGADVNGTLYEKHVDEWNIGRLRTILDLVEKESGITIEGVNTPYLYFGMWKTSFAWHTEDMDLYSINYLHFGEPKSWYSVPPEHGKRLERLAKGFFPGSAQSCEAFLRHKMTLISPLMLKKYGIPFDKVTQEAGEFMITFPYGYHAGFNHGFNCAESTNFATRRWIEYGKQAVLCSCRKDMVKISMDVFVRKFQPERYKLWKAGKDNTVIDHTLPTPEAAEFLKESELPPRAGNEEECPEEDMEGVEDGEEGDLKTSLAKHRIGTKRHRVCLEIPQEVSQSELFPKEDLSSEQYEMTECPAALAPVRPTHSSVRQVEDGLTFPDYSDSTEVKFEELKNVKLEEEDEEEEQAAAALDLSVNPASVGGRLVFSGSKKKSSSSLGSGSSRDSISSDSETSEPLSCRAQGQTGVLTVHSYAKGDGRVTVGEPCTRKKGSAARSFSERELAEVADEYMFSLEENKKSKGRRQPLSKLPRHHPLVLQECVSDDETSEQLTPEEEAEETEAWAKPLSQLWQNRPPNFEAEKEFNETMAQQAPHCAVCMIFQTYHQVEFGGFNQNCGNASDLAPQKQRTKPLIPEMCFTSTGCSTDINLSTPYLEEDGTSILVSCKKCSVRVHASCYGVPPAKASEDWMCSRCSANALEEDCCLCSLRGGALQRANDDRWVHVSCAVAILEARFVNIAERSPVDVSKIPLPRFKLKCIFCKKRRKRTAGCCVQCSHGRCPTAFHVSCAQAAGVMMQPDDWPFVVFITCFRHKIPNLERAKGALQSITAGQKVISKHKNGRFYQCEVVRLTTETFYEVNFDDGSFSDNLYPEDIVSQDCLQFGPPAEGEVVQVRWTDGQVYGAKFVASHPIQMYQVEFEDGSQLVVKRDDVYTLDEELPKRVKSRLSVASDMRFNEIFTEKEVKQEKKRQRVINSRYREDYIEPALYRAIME

What is called AC50 is the midpoint of the concentration-response curve, whichever way the signal moves. As for `CC(=O)C[C@@H](O)CC(=O)[C@H]1OC(=O)[C@H](C)CCCCc2ccccc21`, the AC50 is > 6 µM (inactive).
